Measurements reported in PubChem BioAssay AID2060884 (Molecular Pharmacology Branch, DTP, NCI, 2025).

Test system: NCI-H929 complex spheroids, viability % test/control
Assay: Anticancer human tumor NCI-H929 cell line growth inhibition [RAS];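 also: compound exposure lasted seven days before viability was read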;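 as to viability, T/C: 100% = DMSO vehicle control viability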
Settings: for IC50: curve of first compound; for viability, T/C: stronger effect = lower value
Outline: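 Tumour cells grown as complex spheroids with HUVEC endothelial cells and mesenchymal stem cells, treated with RAS pathway inhibitor combinations. Each agent spans half-log steps from near clinical Cmax, or 10 microM where Cmax is unknown.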

[1] = second compound 0.00316 µM, first compound 0.000949 µM
[2] = second compound 0.00316 µM, first compound 0.003 µM
[3] = second compound 0.00316 µM, first compound 0.00949 µM
[4] = second compound 0.00316 µM, first compound 0.03 µM
[5] = second compound 0.00316 µM, first compound 0.0949 µM
[6] = second compound 0.00316 µM, first compound 0.3 µM
[7] = second compound 0.01 µM, first compound 0.000949 µM
[8] = second compound 0.01 µM, first compound 0.003 µM
[9] = second compound 0.01 µM, first compound 0.00949 µM
[10] = second compound 0.01 µM, first compound 0.03 µM
[11] = second compound 0.01 µM, first compound 0.0949 µM
[12] = second compound 0.01 µM, first compound 0.3 µM
[13] = second compound 0.0316 µM, first compound 0.000949 µM
[14] = second compound 0.0316 µM, first compound 0.003 µM
[15] = second compound 0.0316 µM, first compound 0.00949 µM
[16] = second compound 0.0316 µM, first compound 0.03 µM
[17] = second compound 0.0316 µM, first compound 0.0949 µM
[18] = second compound 0.0316 µM, first compound 0.3 µM
[19] = second compound 0.1 µM, first compound 0.000949 µM
[20] = second compound 0.1 µM, first compound 0.003 µM
[21] = second compound 0.1 µM, first compound 0.00949 µM
[22] = second compound 0.1 µM, first compound 0.03 µM
[23] = second compound 0.1 µM, first compound 0.0949 µM
[24] = second compound 0.1 µM, first compound 0.3 µM
[25] = second compound 0.316 µM, first compound 0.000949 µM
[26] = second compound 0.316 µM, first compound 0.003 µM
[27] = second compound 0.316 µM, first compound 0.00949 µM
[28] = second compound 0.316 µM, first compound 0.03 µM
[29] = second compound 0.316 µM, first compound 0.0949 µM
[30] = second compound 0.316 µM, first compound 0.3 µM
[31] = second compound 1 µM, first compound 0.000949 µM
[32] = second compound 1 µM, first compound 0.003 µM
[33] = second compound 1 µM, first compound 0.00949 µM
[34] = second compound 1 µM, first compound 0.03 µM
[35] = second compound 1 µM, first compound 0.0949 µM
[36] = second compound 1 µM, first compound 0.3 µM

CC(=O)OC12COC1CC(O)C1(C)C(=O)C(O)C3=C(C)C(OC(=O)C(O)C(NC(=O)OC(C)(C)C)c4ccccc4)CC(O)(C(OC(=O)c4ccccc4)C21)C3(C)C (stereo unspecified) + C=CC(=O)N1CCN(c2nc(OCC3CCCN3C)nc3c(F)c(-c4nc(N)cc(C)c4C(F)(F)F)c(Cl)cc23)C(C)C1
IC50 (second compound 0.00316 µM): < 31.6 nM | IC50 (second compound 0.01 µM): < 31.6 nM | IC50 (second compound 0.0316 µM): < 31.6 nM | IC50 (second compound 0.1 µM): < 31.6 nM | IC50 (second compound 0.316 µM): < 31.6 nM | IC50 (second compound 1 µM): < 31.6 nM | viability, T/C (second compound 0.00316 µM, first compound 0.0316 µM): 0.81% | viability, T/C (second compound 0.00316 µM, first compound 0.1 µM): 0.73% | viability, T/C (second compound 0.00316 µM, first compound 0.316 µM): 1.35% | viability, T/C (second compound 0.00316 µM, first compound 1 µM): 2.03% | viability, T/C (second compound 0.00316 µM, first compound 3.16 µM): 1.42% | viability, T/C (second compound 0.00316 µM, first compound 10 µM): 1.11% | viability, T/C (second compound 0.01 µM, first compound 0.0316 µM): 1.77% | viability, T/C (second compound 0.01 µM, first compound 0.1 µM): 0.94% | viability, T/C (second compound 0.01 µM, first compound 0.316 µM): 1.67% | viability, T/C (second compound 0.01 µM, first compound 1 µM): 1.93% | viability, T/C (second compound 0.01 µM, first compound 3.16 µM): 1.54% | viability, T/C (second compound 0.01 µM, first compound 10 µM): 1.19% | viability, T/C (second compound 0.0316 µM, first compound 0.0316 µM): 1.41% | viability, T/C (second compound 0.0316 µM, first compound 0.1 µM): 1.13% | viability, T/C (second compound 0.0316 µM, first compound 0.316 µM): 1.31% | viability, T/C (second compound 0.0316 µM, first compound 1 µM): 1.79% | viability, T/C (second compound 0.0316 µM, first compound 3.16 µM): 1.72% | viability, T/C (second compound 0.0316 µM, first compound 10 µM): 0.97% | viability, T/C (second compound 0.1 µM, first compound 0.0316 µM): 2.46% | viability, T/C (second compound 0.1 µM, first compound 0.1 µM): 1.76% | viability, T/C (second compound 0.1 µM, first compound 0.316 µM): 0.8% | viability, T/C (second compound 0.1 µM, first compound 1 µM): 2.06% | viability, T/C (second compound 0.1 µM, first compound 3.16 µM): 1.88% | viability, T/C (second compound 0.1 µM, first compound 10 µM): 1.11% | viability, T/C (second compound 0.316 µM, first compound 0.0316 µM): 0.97% | viability, T/C (second compound 0.316 µM, first compound 0.1 µM): 1.22% | viability, T/C (second compound 0.316 µM, first compound 0.316 µM): 0.89% | viability, T/C (second compound 0.316 µM, first compound 1 µM): 2.24% | viability, T/C (second compound 0.316 µM, first compound 3.16 µM): 1.05% | viability, T/C (second compound 0.316 µM, first compound 10 µM): 1.06% | viability, T/C (second compound 1 µM, first compound 0.0316 µM): 2.41% | viability, T/C (second compound 1 µM, first compound 0.1 µM): 1.89% | viability, T/C (second compound 1 µM, first compound 0.316 µM): 1.45% | viability, T/C (second compound 1 µM, first compound 1 µM): 0.87% | viability, T/C (second compound 1 µM, first compound 3.16 µM): 1.43% | viability, T/C (second compound 1 µM, first compound 10 µM): 1.17%

CC1(C)CCC(Nc2ncc(C(F)(F)F)c(-c3c[nH]c4c(P(C)(C)=O)c(C#N)ccc34)n2)CN1 (stereo unspecified) + C=CC(=O)N1CCN(c2nc(OCC3CCCN3C)nc3c(F)c(-c4nc(N)cc(C)c4C(F)(F)F)c(Cl)cc23)C(C)C1
IC50 (second compound 0.00316 µM): 5.68 nM | IC50 (second compound 0.01 µM): 6.25 nM | IC50 (second compound 0.0316 µM): 6.33 nM | IC50 (second compound 0.1 µM): 6.39 nM | IC50 (second compound 0.316 µM): 6.5 nM | IC50 (second compound 1 µM): 6.68 nM | viability, T/C [1]: 128% | viability, T/C [2]: 92.7% | viability, T/C [3]: 15.7% | viability, T/C [4]: 9.6% | viability, T/C [5]: 8.73% | viability, T/C [6]: 5.5% | viability, T/C [7]: 125% | viability, T/C [8]: 109% | viability, T/C [9]: 16.1% | viability, T/C [10]: 12.3% | viability, T/C [11]: 9.77% | viability, T/C [12]: 5.17% | viability, T/C [13]: 125% | viability, T/C [14]: 111% | viability, T/C [15]: 16.7% | viability, T/C [16]: 11.4% | viability, T/C [17]: 7.81% | viability, T/C [18]: 5.16% | viability, T/C [19]: 123% | viability, T/C [20]: 114% | viability, T/C [21]: 16.6% | viability, T/C [22]: 11.9% | viability, T/C [23]: 7.35% | viability, T/C [24]: 5.2% | viability, T/C [25]: 129% | viability, T/C [26]: 114% | viability, T/C [27]: 18.5% | viability, T/C [28]: 9.66% | viability, T/C [29]: 8.16% | viability, T/C [30]: 5.67% | viability, T/C [31]: 132% | viability, T/C [32]: 125% | viability, T/C [33]: 17% | viability, T/C [34]: 13.4% | viability, T/C [35]: 9.36% | viability, T/C [36]: 6.92%

CCc1c2c(nc3ccc(O)cc13)-c1cc3c(c(=O)n1C2)COC(=O)[C@]3(O)CC + C=CC(=O)N1CCN(c2nc(OCC3CCCN3C)nc3c(F)c(-c4nc(N)cc(C)c4C(F)(F)F)c(Cl)cc23)C(C)C1
IC50 (second compound 0.00316 µM): 1.85 nM | IC50 (second compound 0.01 µM): 1.94 nM | IC50 (second compound 0.0316 µM): 1.99 nM | IC50 (second compound 0.1 µM): 1.99 nM | IC50 (second compound 0.316 µM): 2.03 nM | IC50 (second compound 1 µM): 1.94 nM | viability, T/C [1]: 106% | viability, T/C [2]: 9.93% | viability, T/C [3]: 1.39% | viability, T/C [4]: 1.87% | viability, T/C [5]: 2.37% | viability, T/C [6]: 1.53% | viability, T/C [7]: 101% | viability, T/C [8]: 18.9% | viability, T/C [9]: 2.06% | viability, T/C [10]: 3.03% | viability, T/C [11]: 2.18% | viability, T/C [12]: 1.15% | viability, T/C [13]: 103% | viability, T/C [14]: 20.9% | viability, T/C [15]: 1.84% | viability, T/C [16]: 2.69% | viability, T/C [17]: 2.18% | viability, T/C [18]: 0.6% | viability, T/C [19]: 104% | viability, T/C [20]: 19.8% | viability, T/C [21]: 1.52% | viability, T/C [22]: 1.4% | viability, T/C [23]: 1.53% | viability, T/C [24]: 0.65% | viability, T/C [25]: 107% | viability, T/C [26]: 20.4% | viability, T/C [27]: 1.92% | viability, T/C [28]: 2.44% | viability, T/C [29]: 1.37% | viability, T/C [30]: 0.74% | viability, T/C [31]: 116% | viability, T/C [32]: 9.86% | viability, T/C [33]: 2.04% | viability, T/C [34]: 2.87% | viability, T/C [35]: 1.52% | viability, T/C [36]: 0.6%
